According to ChEMBL document CHEMBL4373729, “Natural dimers of coumarin, chalcones, and resveratrol and the link between structure and pharmacology” (Eur J Med Chem, 2019):
Converted amounts (≈) assume the structure as drawn.

Key:
[1] = target: T1, Cathepsin L2 (Homo sapiens, UniProt O60911); test: Inhibition of recombinant human cathepsin V using Z-Phe-Arg-7-amido-4-methylcoumarin as substrate by fluorescence assay
T1 sequence (O60911 whole entry): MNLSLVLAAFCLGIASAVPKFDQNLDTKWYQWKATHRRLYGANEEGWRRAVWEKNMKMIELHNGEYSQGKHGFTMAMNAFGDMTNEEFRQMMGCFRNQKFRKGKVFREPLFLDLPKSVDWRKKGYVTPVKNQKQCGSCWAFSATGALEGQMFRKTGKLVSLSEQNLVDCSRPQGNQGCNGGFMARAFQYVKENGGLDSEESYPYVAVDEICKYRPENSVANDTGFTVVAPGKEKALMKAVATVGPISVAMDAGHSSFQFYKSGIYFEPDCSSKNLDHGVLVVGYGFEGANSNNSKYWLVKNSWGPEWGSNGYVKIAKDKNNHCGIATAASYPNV

[2] = system: Plasmodium falciparum; test: Antiplasmodial activity against multidrug-resistant Plasmodium falciparum K1 by [3H]-hypoxanthine incorporation assay; format: functional, organism-based
[3] = system: NCI-H187; test: Cytotoxicity against human NCI-H187 cells assessed as reduction in cell viability; format: functional, cell-based
[4] = system: KB; test: Cytotoxicity against human KB cells assessed as reduction in cell viability; format: functional, cell-based
[5] = target: T2, Alpha glucosidase (Homo sapiens, UniProt O43451+P10253+P14410+Q2M2H8); test: Inhibition of alpha-glucosidase (unknown origin) using 4-nitrophenyl alpha-D-glucopyranoside as substarte preincubated for 10 mins followed by substrate addition measured after 30 mins; format: protein assay
[6] = target: T3, DNA topoisomerase 2-alpha (Homo sapiens, UniProt P11388); test: Inhibition of human topoisomerase 2 by fluorescence method
[7] = target: T3, DNA topoisomerase 2-alpha; test: Inhibition of topoisomerase 2 (unknown origin)
[8] = target: Glucagon-like peptide 1 receptor (Homo sapiens, UniProt P43220); test: Agonist activity at human GLP1 receptor
[9] = target: T2, Alpha glucosidase; test: Inhibition of alpha-glucosidase (unknown origin); format: protein assay
[10] = target: Human immunodeficiency virus type 1 reverse transcriptase (Human immunodeficiency virus 1, UniProt Q72547); test: Inhibition of HIV-1 reverse transcriptase
[11] = system: Saccharomyces cerevisiae; test: Inhibition of yeast alpha-glucosidase using p-nitrophenyl-alpha-D-glucopyranoside as substarte preincubated for 0.5 hrs followed by substrate addition measured after 0.5 hrs relative to control; conditions: concentration not given here
[12] = Inhibition of yeast alpha-glucosidase using p-nitrophenyl-alpha-D-glucopyranoside as substarte preincubated for 0.5 hrs followed by substrate addition measured after 0.5 hrs; parameters: species or system Saccharomyces cerevisiae

T3 sequence (P11388 whole entry): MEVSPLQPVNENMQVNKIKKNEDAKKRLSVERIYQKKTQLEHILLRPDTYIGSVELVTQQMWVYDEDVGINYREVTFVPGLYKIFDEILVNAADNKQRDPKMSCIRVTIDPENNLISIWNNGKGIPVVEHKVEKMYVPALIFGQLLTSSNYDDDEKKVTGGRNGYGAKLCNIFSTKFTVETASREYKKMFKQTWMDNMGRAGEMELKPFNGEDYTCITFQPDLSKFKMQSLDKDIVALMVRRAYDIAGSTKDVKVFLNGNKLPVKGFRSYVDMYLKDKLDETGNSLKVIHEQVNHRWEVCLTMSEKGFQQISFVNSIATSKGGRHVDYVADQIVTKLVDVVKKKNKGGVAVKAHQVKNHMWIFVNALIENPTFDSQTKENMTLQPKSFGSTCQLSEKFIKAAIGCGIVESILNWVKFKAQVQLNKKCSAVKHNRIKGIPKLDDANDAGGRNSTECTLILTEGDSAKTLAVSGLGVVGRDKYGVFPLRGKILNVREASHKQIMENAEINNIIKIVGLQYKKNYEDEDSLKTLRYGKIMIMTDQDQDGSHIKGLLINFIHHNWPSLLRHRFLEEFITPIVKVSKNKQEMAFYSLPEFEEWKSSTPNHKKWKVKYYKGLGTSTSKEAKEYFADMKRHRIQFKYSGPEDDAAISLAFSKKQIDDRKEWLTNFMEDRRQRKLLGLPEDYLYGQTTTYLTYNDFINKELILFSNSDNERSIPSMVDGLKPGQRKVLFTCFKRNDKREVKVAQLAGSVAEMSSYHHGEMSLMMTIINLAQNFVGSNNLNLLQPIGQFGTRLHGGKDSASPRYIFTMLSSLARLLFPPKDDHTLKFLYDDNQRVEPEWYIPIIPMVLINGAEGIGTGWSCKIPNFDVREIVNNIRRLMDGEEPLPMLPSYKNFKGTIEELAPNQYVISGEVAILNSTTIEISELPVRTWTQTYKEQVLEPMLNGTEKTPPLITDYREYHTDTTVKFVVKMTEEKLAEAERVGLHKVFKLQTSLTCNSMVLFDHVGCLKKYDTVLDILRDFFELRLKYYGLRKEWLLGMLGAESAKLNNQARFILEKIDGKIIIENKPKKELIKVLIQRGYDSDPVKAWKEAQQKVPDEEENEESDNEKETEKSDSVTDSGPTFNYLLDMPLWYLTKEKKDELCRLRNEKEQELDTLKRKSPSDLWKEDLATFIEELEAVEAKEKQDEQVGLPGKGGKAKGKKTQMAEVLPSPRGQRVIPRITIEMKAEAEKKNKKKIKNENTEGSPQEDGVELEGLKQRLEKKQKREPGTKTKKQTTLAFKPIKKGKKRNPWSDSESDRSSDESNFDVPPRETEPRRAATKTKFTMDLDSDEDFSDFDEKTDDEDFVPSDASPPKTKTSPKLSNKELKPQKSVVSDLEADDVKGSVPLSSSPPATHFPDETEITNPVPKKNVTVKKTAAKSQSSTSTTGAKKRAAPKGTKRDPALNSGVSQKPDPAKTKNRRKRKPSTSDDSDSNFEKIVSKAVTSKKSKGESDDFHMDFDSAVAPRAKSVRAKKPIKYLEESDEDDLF
Chain of Glucagon-like peptide 1 receptor (P43220 whole entry): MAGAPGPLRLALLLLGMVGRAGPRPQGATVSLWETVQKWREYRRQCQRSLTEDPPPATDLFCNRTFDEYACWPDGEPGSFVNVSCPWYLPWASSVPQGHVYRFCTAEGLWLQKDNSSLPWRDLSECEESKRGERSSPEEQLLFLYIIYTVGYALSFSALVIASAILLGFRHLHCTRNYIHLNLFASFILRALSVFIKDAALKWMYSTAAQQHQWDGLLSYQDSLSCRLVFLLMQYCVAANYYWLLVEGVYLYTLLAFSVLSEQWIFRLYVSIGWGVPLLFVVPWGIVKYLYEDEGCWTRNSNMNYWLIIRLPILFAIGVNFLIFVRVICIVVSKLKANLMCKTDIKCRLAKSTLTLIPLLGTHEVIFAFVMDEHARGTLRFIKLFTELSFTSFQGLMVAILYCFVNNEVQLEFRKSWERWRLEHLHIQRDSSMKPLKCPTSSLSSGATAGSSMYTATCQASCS

Q: For `O=C1c2ccc(O)cc2OC2c3cc(O)c(O)cc3[C@@H](c3ccc(O)cc3)[C@@H](C(=O)c3ccc(O)cc3O)C12` (stereo partly specified), which IC50 [1] is on record?
A: 0.7 µM

Q: With `O=C(c1ccc(O)cc1O)[C@@H]1[C@H](c2ccc(O)cc2)c2cc(O)c(O)cc2[C@H](O)[C@@H]1C(=O)c1ccc(O)cc1` as the compound, how does the IC50 [1] read?
A: 1.4 µM

Q: With `COc1cc(OC)c([C@@H]2Oc3c(OC)c(OC)cc(OC)c3[C@@H](/C=C/c3ccccc3)[C@H]2C(=O)c2ccccc2)c(O)c1OC` as the compound, how does the IC50 [2] read?
A: 3.02 to 4.21 µg/mL (≈ 4.93 to 6.87 µM)

Q: Which IC50 [3] does the source give for `C=CC(C)(C)c1c2c(c(O)c3c1OC(C)(C)C=C3)C=C([C@H]1CC(C)(C)Oc3c1c(O)c1ccc(=O)oc1c3C(C)(C)C=C)CO2` here?
A: 7.1 µg/mL (≈ 11.6 µM)

Q: And the IC50 [4]?
A: 5.95 µg/mL (≈ 9.74 µM)

Q: Which IC50 [5] does the source give for `O=c1ccc2ccc(O)c(-c3c(OC4O[C@H](CO)[C@@H](O)[C@H](O)[C@H]4O)ccc4ccc(=O)oc34)c2o1` (stereo partly specified) here?
A: 760 µg/mL (≈ 1570 µM)

Q: For `COc1cc(OC)c2c(c1OC)O[C@H]1c3c(OC)cc(OC)c(OC)c3O[C@H](c3ccccc3)[C@H]1[C@@H]2/C=C/c1ccccc1` [DEPENDENSIN], which IC50 [2] is on record?
A: 3.02 to 4.21 µg/mL (≈ 5.06 to 7.06 µM)

Q: Which IC50 [1] does the source give for `O=C(c1ccc(O)cc1O)[C@H]1[C@H](c2ccc(O)cc2)c2cc(O)c(O)cc2[C@H](O)[C@]1(O)C(=O)c1ccc(O)cc1` here?
A: 0.42 µM

Q: Which results are given for `O=C(/C=C/c1ccc(O)cc1)c1ccc2c(c1O)[C@H](C(=O)c1ccc(O)cc1O)[C@@H](c1ccc(O)cc1)O2`?
A: IC50 [6]: 15.3 µM; IC50 [7]: 2.1 µM

Q: For `COc1cc(OC)c2c(c1OC)C=C(C(=O)c1ccccc1)C1(C=C(c3ccccc3)Oc3c(OC)c(OC)cc(OC)c31)O2` (stereo unspecified), which IC50 [2] is on record?
A: 3.02 to 4.21 µg/mL (≈ 4.96 to 6.92 µM)

Q: Which IC50 [5] does the source give for `COc1cc2cc(Oc3cc(O[C@@H]4O[C@H](CO)[C@@H](O)[C@H](O)[C@H]4O[C@@H]4O[C@H](CO)[C@@H](O)[C@H](O)[C@H]4O)c4ccc(=O)oc4c3)c(=O)oc2cc1O` here?
A: 231 µg/mL (≈ 334 µM)

Q: Which EC50 [8] does the source give for `COc1cc([C@H]2[C@](NC(=O)c3ccc(NC(=O)OC(C)(C)C)cc3)(C(=O)O)[C@@H](c3ccc(OC(=O)c4cccs4)c(OC)c3)[C@]2(NC(=O)c2ccc(NC(=O)OC(C)(C)C)cc2)C(=O)O)ccc1OC(=O)c1cccs1` here?
A: 0.847 µM

Q: For `O=c1ccc2ccc(Oc3cc4ccc(O)c(-c5c(OC6O[C@H](CO)[C@@H](O)[C@H](O)[C@H]6O)ccc6ccc(=O)oc56)c4oc3=O)cc2o1` (stereo partly specified), which IC50 [5] is on record?
A: 780 µg/mL (≈ 1210 µM)

Q: With `O=C(/C=C/c1ccc(O)cc1)c1cc2c(cc1O)O[C@H](c1ccc(O)cc1)[C@H]2C(=O)c1ccc(O)cc1O` as the compound, how does the IC50 [6] read?
A: 14.5 µM

Q: For `C=C(C)C(COc1c2ccoc2cc2oc(=O)ccc12)OC(C)(C)C(O)COc1c2occc2c(OC)c2ccc(=O)oc12` (stereo unspecified), which IC50 [9] is on record?
A: 8.8 to 9.8 µM

Q: With `Oc1ccc(/C=C/c2cc(O)c3c(-c4cc(O)cc(O)c4)c(-c4ccc(O)cc4)oc3c2)cc1` as the compound, how does the IC50 [10] read?
A: 8 µM

Q: For `COc1cc(OC)c([C@@H]2Oc3c(OC)c(OC)cc(OC)c3[C@H](/C=C/c3ccccc3)[C@@H]2C(=O)c2ccccc2)c(O)c1OC`, which IC50 [2] is on record?
A: 3.02 to 4.21 µg/mL (≈ 4.93 to 6.87 µM)

Q: With `C=C(C)C(COc1c2occc2cc2ccc(=O)oc12)OC(C)(C)[C@H](O)COc1c2ccoc2cc2oc(=O)ccc12` (stereo partly specified) as the compound, how does the IC50 [9] read?
A: 8.8 to 9.8 µM

Q: For `COc1cc(OC)c(OC)c2c1C[C@H]1[C@@H](/C=C/c3ccccc3)c3c(OC)cc(OC)c(OC)c3O[C@@]1(c1ccccc1)O2`, which IC50 [2] is on record?
A: 3.02 to 4.21 µg/mL (≈ 5.06 to 7.06 µM)

Q: With `C=C(C)C(COc1c2occc2c(OC)c2ccc(=O)oc12)OC(C)(C)[C@H](O)COc1c2ccoc2cc2oc(=O)ccc12` (stereo partly specified) as the compound, how does the IC50 [9] read?
A: 8.8 to 9.8 µM

Q: For `COc1cc([C@H]2[C@](NC(=O)c3ccc(NC(=O)C(C)C)cc3)(C(=O)O)[C@@H](c3ccc(OC(=O)c4cccs4)c(OC)c3)[C@]2(NC(=O)c2ccc(NC(=O)C(C)C)cc2)C(=O)O)ccc1OC(=O)c1cccs1`, which EC50 [8] is on record?
A: 0.203 µM

Q: Which inhibition [11] does the source give for `Cc1c(-c2c(O)ccc3c(C)cc(=O)oc23)c(=O)oc2cc(O)ccc12` here?
A: > 65%

Q: And the IC50 [12]?
A: 16.3 µM

Q: With `Cc1cc(=O)oc2cc(O)c(-c3c(C)c4ccc(O)cc4oc3=O)cc12` as the compound, how does the inhibition [11] read?
A: > 65%

Q: What about the IC50 [12] of the same compound?
A: 36.8 µM
